Test results published in patent US9592223B2, “Small molecule inhibitors of MALT1” (Cornell University, priority 2012, dated 2017).

What was measured:
[1] = tested on: cleavage of A20, BCL10 and RELB; assay: Cleavage of MALT1 substrates with MG-132 in HBL-1 and TMD8 cell lines, Western blot; format: cell-based, human; details: 2 μM for 30 minutes, then 5 μM MG-132 for one or two hour
Description: As these proteins are directed to proteasomal degradation after cleavage (Coornaert et al., 2008; Hailfinger et al., 2011; Rebeaud et al., 2008), we used the proteasome inhibitor MG-132 to facilitate visualization of cleavage products (FIG. 4A).
Equal amounts of total protein (20-75 μg) were separated on sodium dodecyl sulfate-polyacrylamide gel electrophoresis (SDS-PAGE), and electrotransferred onto nitrocellulose membranes. Membranes were incubated with primary antibodies (MALT1, BCL-10, CYLD from Santa Cruz Biotechnologies, Santa Cruz, Calif.; A20 from eBioscience, San Diego, Calif.; phospho-IκB-α, IκB-α, c-REL, RELB from Cell Signaling, Danvers, Mass. and α-Tubulin from Sigma), followed by secondary antibodies conjugated to horseradish peroxidase, which were detected by chemiluminescence (Pierce, Thermo Scientific, Rockford, Ill.).

[2] = tested on: HBL-1 ABC-DLBCL xenografts; assay: HBL-1 xenograft in NOD-SCID mice; format: in vivo; details: IP 25 mg/kg/day
Description: Animals were sacrificed 24 hr after the fourteenth injection.
Eight-week old male SCID NOD.CB17-Prkdc^scid/J mice were subcutaneously injected with low-passage 10^7 human HBL-1, TMD8 or OCI-Ly1 cells. Treatment was administered by intra-peritoneal injection. Tumor volume was monitored by three-weekly digital calipering. All procedures followed US NIH protocols and were approved by the Animal Institute Committee of the Weill Cornell Medical College.
Eight-week old male SCID NOD.CB17-Prkdc^scid/J mice were purchased from Jackson Laboratories (Bar Harbor, Minn.) and housed in a clean environment. Mice were subcutaneously injected with low-passage 10^7 human TMD8 or OCI-Ly1 cells in 50% matrigel (BD Biosciences, #354234). Treatment was initiated when tumors reached an average size of 120 mm^3 (17 days post-transplantation). Drugs were reconstituted in DMSO and stored at −80° C. until used and were administered by intra-peritoneal injection. Tumor volume was monitored by three-weekly digital calipering (Fisher Scientific, Thermo Scientific, Rockford, Ill.) and calculated using the formula (smallest diameter^2×largest diameter)/2. Data were expressed as mean±SEM, and differences were considered statistically significant at p<0.05 by paired Student's t-test. All procedures involving animals followed US NIH protocols and were approved by the Animal Institute Committee of the Weill Cornell Medical College of Cornell University.
Paraffin-embedded tumor xenografts were sectioned, dewaxed and submitted to antigen retrieval. For IF-P, Alexa Fluor-488 conjugated secondary antibodies from Invitrogen where used and cell nuclei where counterstained with DAPI. Fluorescent images were taken using an Axiovert 200M fluorescent microscope (Carl Zeiss Inc., Thornwood, N.Y.). Oberkochen, Germany). For IHC, biotin-conjugated secondary antibodies where used. Then avidin/biotin peroxidase was applied to the slides (Vector Laboratories). Color was developed with diaminobenzoate chromogen peroxidase substrate (Vector) and counterstained with hematoxilin-eosyn. […]

HBL-1 cells = assay: MI-2 intracellular concentration in HBL-1 cells by LC-MS; format: in vitro ADME, human
OCI-Ly1 = assay: CFSE dilution assay by flow cytometry, GCB-DLBCL line; format: cell-based, human; details: viable cells at 48, 72 and 96 h
Description: Cell proliferation was examined using the CFSE dilution assay by flow cytometry on viable cells at 48, 72 and 96 h. […] Trypan blue exclusion and apoptosis assessed by Annexin V^+ DAPI^− flow cytometry was measured every 48 hr for a period of 14 days.
CFSE covalently labels long-lived intracellular molecules with carboxyfluorescein. Following each cell division, fluorescent molecules dilute in daughter cells, allowing comparative study of the kinetics of cell division. Cells were stained with DAPI (Sigma), followed by flow cytometry. DAPI^neg cells were gated for analysis.

[3] = Toxicity 1: increasing daily IP doses over 10 days; format: in vivo, C57BL/6 mice; details: daily IP 0.05 to 25 mg/kg over 10 days, cumulative 51.1 mg/kg
Excerpt: Brain, heart, lung, liver, kidney, bowel, spleen, thymus and bone marrow tissues were examined. […] Myeloid to erythroid ratio was 4-5:1. Megakaryocytes were normal in number and distribution. There was no fibrosis nor increased number of blasts or lymphocytes. Complete peripheral blood counts, biochemistry and liver function tests were normal (Table 2).

For `COCCOc1nc(-c2ccc(Cl)c(Cl)c2)n(-c2ccc(NC(=O)CCl)cc2)n1` [MI-2], the “cleaved forms of A20, BCL10 and RELB” value [1] was “diminished the abundance of cleaved forms and/or increased the abundance of full-length proteins”, the “xenograft growth vs. vehicle” value ([2]; fourteen injections, p=0.014) was “profoundly suppressed the growth” and the “proliferation (Ki-67 staining)” value ([2]; p<0.0001) was “significant decrease in proliferation”. The “apoptotic cells (TUNEL assay)” value ([2]; p=0.0008) was “significant increase in apoptotic cells”, the intracellular concentration (HBL-1 cells; 0.2 μM treated HBL-1 cells, 2 hr) was 5 µM and the “free drug within the cells” value (HBL-1 cells; 0.2 μM, by 12 hr) was “virtually no detectable free MI-2”. For the same compound, the “cell proliferation (CFSE dilution)” value (OCI-Ly1) was “did not affect” and the “physical indicators of sickness” value [3] was “no evidence of lethargy, weight loss”.
